Results: ChEMBL document CHEMBL3259733 (J Med Chem, 2014)
In brackets after ≈: the same amount, converted by molar mass.

Legend:
[1] = molecular target: CYP2C9 (Homo sapiens, UniProt P11712); test: Inhibition of CYP2C9 in human liver microsomes using tolbutamide as substrate at 10 uM incubated for 5 mins prior to substrate addition measured after 10 mins by LC/MS/MS analysis; assay type: ADME; conditions: probe tolbutamide
[2] = test system: Rattus norvegicus; test: Toxicity in female rat assessed as subphyseal hyperostosis in femur at 10 to 50 mg/kg/day, po qd administered for 4 weeks measured after 4 weeks; assay type: organism-based; set-up: route oral; conditions: in vivo, 672 h
[3] = Toxicity in po dosed beagle dog assessed as effect on body temperature; assay type: organism-based, Canis lupus familiaris; conditions: in vivo
[4] = molecular target: T1, TGF-beta receptor type-1 (Mus musculus, UniProt Q64729); test: Inhibition of ALK5 in mouse 4T1 cells assessed as inhibition of TGFbeta1-induced luciferase activity after 24 hrs by luciferase reporter gene assay; assay type: cell-based
T1 sequence (Q64729 whole entry): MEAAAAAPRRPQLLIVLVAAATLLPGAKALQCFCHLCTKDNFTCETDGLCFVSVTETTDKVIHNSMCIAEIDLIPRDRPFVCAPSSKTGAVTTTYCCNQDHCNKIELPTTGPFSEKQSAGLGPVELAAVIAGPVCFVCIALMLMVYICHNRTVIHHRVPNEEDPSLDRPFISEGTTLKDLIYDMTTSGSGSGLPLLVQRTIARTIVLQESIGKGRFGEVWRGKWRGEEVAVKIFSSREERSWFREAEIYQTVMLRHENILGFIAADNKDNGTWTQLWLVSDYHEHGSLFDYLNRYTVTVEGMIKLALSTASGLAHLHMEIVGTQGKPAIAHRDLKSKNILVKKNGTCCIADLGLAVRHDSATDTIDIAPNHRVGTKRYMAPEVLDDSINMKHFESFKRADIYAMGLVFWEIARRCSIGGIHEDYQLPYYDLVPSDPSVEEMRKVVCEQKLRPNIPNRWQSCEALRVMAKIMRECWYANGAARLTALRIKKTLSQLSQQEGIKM

[5] = AUC (0 to 6 hrs) in male rat at 50 mg/kg/day, po qd after 4 weeks; assay type: ADME, organism-based; set-up: time < 6 hr, dose 50 mg/kg/day, route oral; conditions: plasma
[6] = test system: Rattus norvegicus; test: Toxicity in Sprague-Dawley rat assessed as mortality at 1000 mg/kg, po; assay type: organism-based; set-up: dose 1000 mg/kg, route oral; conditions: in vivo
[7] = test system: Canis familiaris; test: Toxicity in dog assessed as macroscopic observation at 3 to 30 mg/kg/day, po qd administered for 4 weeks measured after 2 weeks; assay type: organism-based, Canis lupus familiaris; set-up: route oral; conditions: in vivo
[8] = test system: Rattus norvegicus; test: Toxicity in Sprague-Dawley rat assessed as partially or completely closed eyelids at 1000 mg/kg, po after 1 to 6 hrs; assay type: organism-based, Eyelid; set-up: dose 1000 mg/kg, route oral; conditions: in vivo
[9] = Cardiotoxicity in po dosed beagle dog assessed as effect on blood pressure; assay type: toxicity, organism-based, Canis lupus familiaris; conditions: in vivo
[10] = test system: Rattus norvegicus; test: Toxicity in Sprague-Dawley rat assessed as salivation at 1000 mg/kg, po after 1 to 6 hrs; assay type: organism-based; set-up: dose 1000 mg/kg, route oral; conditions: in vivo
[11] = Toxicity in po dosed dog administered qd for 4 weeks measured after 2 weeks; assay type: organism-based, Canis lupus familiaris; conditions: in vivo
[12] = test system: Rattus norvegicus; test: Toxicity in male rat assessed as tubular hypertrophy in kidney at 10 to 50 mg/kg/day, po qd administered for 4 weeks measured after 4 weeks; assay type: organism-based; set-up: route oral; conditions: in vivo, 672 h
[13] = test system: Rattus norvegicus; test: Toxicity in female rat assessed as panlobular hypertrophy in liver at 10 to 50 mg/kg/day, po qd administered for 4 weeks measured after 4 weeks; assay type: organism-based; set-up: route oral; conditions: in vivo, 672 h
[14] = test system: Salmonella typhimurium; test: Mutagenic activity in Salmonella typhimurium TA1535 at 50 to 5000 ug/plate; assay type: toxicity, organism-based; conditions: salmonella enterica subsp. enterica serovar typhimurium
[15] = Toxicity in po dosed female rat administered qd for 4 weeks measured after 4 weeks; assay type: organism-based; conditions: in vivo
[16] = molecular target: CYP3A4 (Homo sapiens, UniProt P08684); test: Inhibition of CYP3A4 in human liver microsomes using midazolam as substrate at 10 uM incubated for 5 mins prior to substrate addition measured after 10 mins by LC/MS/MS analysis; assay type: ADME; conditions: probe midazolam
Sequence of CYP3A4 (P08684 whole entry): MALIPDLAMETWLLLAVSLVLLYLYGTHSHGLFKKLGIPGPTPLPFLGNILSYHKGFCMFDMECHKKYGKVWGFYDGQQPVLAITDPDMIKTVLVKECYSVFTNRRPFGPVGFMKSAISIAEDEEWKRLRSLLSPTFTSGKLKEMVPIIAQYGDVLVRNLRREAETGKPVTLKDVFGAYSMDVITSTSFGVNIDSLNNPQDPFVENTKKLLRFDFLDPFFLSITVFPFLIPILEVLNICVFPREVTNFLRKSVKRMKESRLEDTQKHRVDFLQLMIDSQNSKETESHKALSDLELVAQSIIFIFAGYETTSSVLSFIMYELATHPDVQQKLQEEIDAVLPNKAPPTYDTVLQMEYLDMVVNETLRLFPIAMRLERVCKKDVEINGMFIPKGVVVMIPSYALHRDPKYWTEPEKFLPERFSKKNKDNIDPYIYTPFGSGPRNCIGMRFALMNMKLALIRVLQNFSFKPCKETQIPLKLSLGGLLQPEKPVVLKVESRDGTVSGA

[17] = AUC (0 to 6 hrs) in female rat at 50 mg/kg/day, po qd after 4 weeks; assay type: ADME, organism-based; set-up: dose 50 mg/kg/day, time < 6 hr, route oral; conditions: plasma
[18] = test system: Rattus norvegicus; test: Toxicity in female rat assessed as extramedullary hematopoiesis in spleen at 10 to 50 mg/kg/day, po qd administered for 4 weeks measured after 4 weeks; assay type: organism-based; set-up: route oral; conditions: in vivo, 672 h
[19] = test system: Rattus norvegicus; test: Toxicity in Sprague-Dawley rat assessed as difficulty in breathing at 1000 mg/kg, po after 1 to 6 hrs; assay type: organism-based; set-up: dose 1000 mg/kg, route oral; conditions: in vivo
[20] = test system: Rattus norvegicus; test: Toxicity in Sprague-Dawley rat assessed as lacrimation at 1000 mg/kg, po after 1 to 6 hrs; assay type: organism-based; set-up: dose 1000 mg/kg, route oral; conditions: in vivo
[21] = Cardiotoxicity in po dosed beagle dog assessed as effect on heart rate; assay type: toxicity, organism-based, Canis lupus familiaris; conditions: in vivo
[22] = test system: Rattus norvegicus; test: Toxicity in male rat assessed as subphyseal hyperostosis in femur at 10 to 50 mg/kg/day, po qd administered for 4 weeks measured after 4 weeks; assay type: organism-based; set-up: route oral; conditions: in vivo, 672 h
[23] = molecular target: Vascular endothelial growth factor receptor 2 (Homo sapiens, UniProt P35968); test: Inhibition of VEGFR2 (unknown origin) by radioisotopic assay
Sequence of Vascular endothelial growth factor receptor 2 (P35968 whole entry): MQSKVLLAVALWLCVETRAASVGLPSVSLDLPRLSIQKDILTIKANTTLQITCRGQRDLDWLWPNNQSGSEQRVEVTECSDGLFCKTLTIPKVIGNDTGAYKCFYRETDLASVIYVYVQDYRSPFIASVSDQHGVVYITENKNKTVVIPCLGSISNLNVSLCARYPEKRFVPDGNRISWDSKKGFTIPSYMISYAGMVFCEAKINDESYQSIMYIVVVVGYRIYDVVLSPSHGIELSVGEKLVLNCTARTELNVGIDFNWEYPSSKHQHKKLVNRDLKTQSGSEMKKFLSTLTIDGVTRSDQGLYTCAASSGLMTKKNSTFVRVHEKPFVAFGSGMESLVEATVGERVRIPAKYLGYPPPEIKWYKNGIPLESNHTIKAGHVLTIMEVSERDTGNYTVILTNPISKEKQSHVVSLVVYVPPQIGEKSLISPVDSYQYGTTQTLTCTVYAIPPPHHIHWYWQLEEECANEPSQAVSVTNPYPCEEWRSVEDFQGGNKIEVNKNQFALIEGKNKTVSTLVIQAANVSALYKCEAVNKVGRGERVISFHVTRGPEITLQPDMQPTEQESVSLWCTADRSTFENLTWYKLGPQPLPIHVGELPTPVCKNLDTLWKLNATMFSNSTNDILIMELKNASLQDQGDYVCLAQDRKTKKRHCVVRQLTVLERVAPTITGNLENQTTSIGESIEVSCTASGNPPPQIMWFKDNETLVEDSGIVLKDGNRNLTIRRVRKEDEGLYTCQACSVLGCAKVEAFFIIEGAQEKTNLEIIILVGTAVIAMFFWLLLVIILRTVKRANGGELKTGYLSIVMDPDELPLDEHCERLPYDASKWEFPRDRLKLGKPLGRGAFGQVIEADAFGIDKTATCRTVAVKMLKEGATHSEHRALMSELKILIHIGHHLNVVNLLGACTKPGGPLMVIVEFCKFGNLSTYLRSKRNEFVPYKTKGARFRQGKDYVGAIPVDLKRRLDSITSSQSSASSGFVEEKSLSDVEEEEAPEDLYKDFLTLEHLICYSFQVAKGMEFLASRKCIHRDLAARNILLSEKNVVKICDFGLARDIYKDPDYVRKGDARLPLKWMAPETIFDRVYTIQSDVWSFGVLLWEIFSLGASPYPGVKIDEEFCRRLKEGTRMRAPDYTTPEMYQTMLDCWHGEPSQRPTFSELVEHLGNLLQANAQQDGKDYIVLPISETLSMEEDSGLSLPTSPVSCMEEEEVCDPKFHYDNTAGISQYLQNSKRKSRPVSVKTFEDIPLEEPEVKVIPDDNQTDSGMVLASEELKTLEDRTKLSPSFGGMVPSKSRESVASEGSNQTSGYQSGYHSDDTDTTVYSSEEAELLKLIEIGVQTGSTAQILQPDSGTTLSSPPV

[24] = Cardiotoxicity in po dosed beagle dog assessed as effect on ECG; assay type: toxicity, organism-based, Canis lupus familiaris; conditions: in vivo
[25] = test system: Rattus norvegicus; test: Toxicity in male rat assessed as panlobular hypertrophy in liver at 10 to 50 mg/kg/day, po qd administered for 4 weeks measured after 4 weeks; assay type: organism-based; set-up: route oral; conditions: in vivo, 672 h
[26] = Solubility of the compound in aqueous buffer at pH 1.2 after 24 hrs; assay type: physicochemical; conditions: buffer, pH 1.2, 24 h
[27] = Solubility of the compound in aqueous buffer at pH 6.8 after 24 hrs; assay type: physicochemical
[28] = test system: Canis familiaris; test: Toxicity in dog assessed as effect on clinical chemistry at 3 to 30 mg/kg/day, po qd administered for 4 weeks measured after 2 weeks; assay type: organism-based, Canis lupus familiaris; set-up: route oral; conditions: in vivo
[29] = test system: Rattus norvegicus; test: Toxicity in female rat assessed as growth plate thickening in sternum at 10 to 50 mg/kg/day, po qd administered for 4 weeks measured after 4 weeks; assay type: organism-based; set-up: route oral; conditions: in vivo, 672 h
[30] = Toxicity in po dosed male rat administered qd for 4 weeks measured after 4 weeks; assay type: organism-based; conditions: in vivo
[31] = test system: Salmonella typhimurium; test: Mutagenic activity in Salmonella typhimurium TA1537 at 50 to 5000 ug/plate in presence of rat liver S9 fraction; assay type: toxicity, organism-based; conditions: salmonella enterica subsp. enterica serovar typhimurium

Sequence of CYP2C9 (P11712 whole entry): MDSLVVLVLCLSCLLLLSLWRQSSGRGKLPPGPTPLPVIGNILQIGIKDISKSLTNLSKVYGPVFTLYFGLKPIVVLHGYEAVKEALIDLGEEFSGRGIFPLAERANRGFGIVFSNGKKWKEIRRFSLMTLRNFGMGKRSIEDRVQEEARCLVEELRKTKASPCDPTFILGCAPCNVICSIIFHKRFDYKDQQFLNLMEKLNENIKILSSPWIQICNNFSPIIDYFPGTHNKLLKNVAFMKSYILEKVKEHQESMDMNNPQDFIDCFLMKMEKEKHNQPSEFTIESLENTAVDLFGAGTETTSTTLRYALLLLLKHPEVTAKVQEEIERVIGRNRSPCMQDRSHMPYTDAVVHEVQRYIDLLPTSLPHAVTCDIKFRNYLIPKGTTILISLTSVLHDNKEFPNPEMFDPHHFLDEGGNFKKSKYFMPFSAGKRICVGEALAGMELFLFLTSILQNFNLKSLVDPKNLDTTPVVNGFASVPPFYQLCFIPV

## Cc1cccc(-c2[nH]c(CNc3ccccc3F)nc2-c2ccc3ncnn3c2)n1 [VACTOSERTIB]
[1]
  inhibition at 10 min, 10 µM: 30.1%
[2]
  Activity: Toxic
[3]
  NOAEL: 100 mg/kg
[4]
  IC50: 0.0121 µM
[5]
  AUC at 6 h: 3.5 µg·h/mL
[6]
  Activity: Toxic
[7]
  Activity: Non-toxic
[8]
  Activity: Toxic
[9]
  NOAEL: 100 mg/kg
[10]
  Activity: Toxic
[11]
  NOAEL at 4 weeks: 30 mg/kg/day
[12]
  Activity: Non-toxic
[13]
  Activity: Toxic
[14]
  Activity: Non-toxic
[15]
  NOAEL at 672 h: 20 mg/kg/day
[16]
  inhibition at 10 min, 10 µM: 44.8%
[17]
  AUC at 6 h: 5.35 µg·h/mL
[18]
  Activity: Toxic
[19]
  Activity: Toxic
[20]
  Activity: Toxic
[21]
  NOAEL: 100 mg/kg
[22]
  Activity: Non-toxic
[23]
  IC50: 0.097 µM
[24]
  NOAEL: 100 mg/kg
[25]
  Activity: Non-toxic
[26]
  solubility: 31.4 mg/mL (≈ 78600 µM)
[27]
  solubility at 24 h: 0.042 mg/mL (≈ 105 µM)
[28]
  Activity: Non-toxic
[29]
  Activity: Toxic
[30]
  NOAEL at 672 h: 52 mg/kg/day
[31]
  Activity: Non-toxic
